Experimental data from ChEMBL document CHEMBL1201862, “PubChem BioAssay data set” (2004).
Calls of active or inactive are those of the source.

Columns and labels:
[1] = molecular target: T1, Mu-type opioid receptor (Homo sapiens, UniProt P35372); assay: MOR agonists by imaging, SAR follow-up, image-based (AID 2352); type: functional
[2] = molecular target: T2, Kappa-type opioid receptor (Homo sapiens, UniProt P41145); assay: KOR agonist analogs, imaging readout, SAR follow-up, image-based (AID 2359); type: functional
[3] = molecular target: T1, Mu-type opioid receptor; assay: MOR antagonists, SAR follow-up, image-based (AID 2420); type: functional;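 also: compounds added before stimulation of receptor with agonist DAMGO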
[4] = molecular target: T2, Kappa-type opioid receptor; assay: kappa opioid receptor blockers, cell-based, luminescence, beta-arrestin, SAR follow-up (AID 2285); type: functional
[5] = molecular target: T3, Delta-type opioid receptor (Homo sapiens, UniProt P41143); assay: DOR antagonists, SAR follow-up, image-based (AID 2357); type: functional
[6] = molecular target: T2, Kappa-type opioid receptor; assay: KOR antagonists by imaging, SAR follow-up, image-based (AID 2348); type: functional
[7] = molecular target: T3, Delta-type opioid receptor; assay: DOR agonists, SAR follow-up, image-based (AID 2370); type: functional
[8] = molecular target: Type-1 angiotensin II receptor (Homo sapiens, UniProt P30556); assay: AT1 receptor antagonists, dose response, selectivity assay for APJ receptor antagonist project, cell-based, uHTS hits (AID 463214); type: functional;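 also: antagonist potency against angiotensin II stimulated AT1 response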
[9] = molecular target: Beta-galactosidase (Escherichia coli, UniProt Q8VNN2); assay: PubChem AID 485352; type: functional
[10] = THP-1 cell cytotoxicity, dose response, cytotoxicity control for non-replicating M. tuberculosis project (AID 489025); type: functional
[11] = inhibitors of SNCA 5'UTR-driven reporter translation, confirmation, H4 neuroglioma cells, luminescence (AID 1988); type: functional, cell-based
[12] = C. albicans growth with fluconazole, confirmation, fluorescence, retest (AID 2467); type: functional, cell-based
[13] = tested on: INS1; assay: beta cell apoptosis inhibitors, cytokine rescue, dose response, luminescence, retest (AID 449756); type: functional, cell-based; conditions: Rattus norvegicus;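 also: cell death triggered by IL-1 beta plus TNF-alpha plus IFN-gamma mixture; protective hits raise ATP signal compared with cytokine alone wells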
[14] = inhibitors of firefly luciferase expression or activity, dose response, H4 neuroglioma cells, luminescence (AID 1990); type: functional, cell-based
[15] = cytotoxicity in HEK-293T cells, dose response, cytotoxicity control for TCR NF-kB inhibitor project, luminescence, T-cell screen hits (AID 489026); type: functional, cell-based;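 also: cells exposed to compound about 14 hours before the viability readout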
[16] = HepG2 cell cytotoxicity, dose response, cytotoxicity control for non-replicating M. tuberculosis project (AID 489018); type: functional; conditions: Mycobacterium tuberculosis
[17] = Vero E6 cell cytotoxicity, dose response, cytotoxicity control for non-replicating M. tuberculosis project, secondary assay (AID 492998); type: functional, VeroE6; conditions: Vero C1008
[18] = Luminescence Cell-Based Dose Response HTS to Identify Inhibitors of 5'UTR Stem-Loop Driven Prion Protein mRNA Translation in H4 Neuroglioblastoma Cells. [Related pubchem assays: 1827 (Project Summary), 1813 (Primary HTS)]; type: functional
[19] = NIH-3T3 fibroblast cytotoxicity, dose response, cytotoxicity control, cell-based, fluorescence, Alamar Blue, secondary assay (AID 2327); type: functional;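 also: NIH-3T3 mouse fibroblasts cultured with fluconazole at 8 µg/mL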
[20] = molecular target: T4, RNA-binding protein pos-1 (Caenorhabditis elegans, UniProt G5EF15); assay: inhibitors of POS-1/mex-3 RNA binding, dose response, biochemical, fluorescence polarization (AID 1964);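 also: purified POS-1 fused to maltose binding protein made in E. coli; potency of compounds blocking POS-1 binding to fluorescent RNA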
T4 sequence (G5EF15 whole entry): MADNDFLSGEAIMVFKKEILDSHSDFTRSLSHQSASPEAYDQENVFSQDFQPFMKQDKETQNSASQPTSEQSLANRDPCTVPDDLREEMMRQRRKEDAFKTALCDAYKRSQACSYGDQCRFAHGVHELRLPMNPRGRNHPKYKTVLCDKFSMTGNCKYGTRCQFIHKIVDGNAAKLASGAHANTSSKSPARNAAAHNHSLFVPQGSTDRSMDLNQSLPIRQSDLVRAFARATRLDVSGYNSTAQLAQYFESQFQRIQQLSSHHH

[21] = molecular target: T5, Zinc finger protein mex-5 (Caenorhabditis elegans, UniProt Q9XUB2); assay: MEX-5/TCR-2 RNA interaction inhibitors, dose response, biochemical, C. elegans, fluorescence polarization (AID 1960)
T5 sequence (Q9XUB2 whole entry): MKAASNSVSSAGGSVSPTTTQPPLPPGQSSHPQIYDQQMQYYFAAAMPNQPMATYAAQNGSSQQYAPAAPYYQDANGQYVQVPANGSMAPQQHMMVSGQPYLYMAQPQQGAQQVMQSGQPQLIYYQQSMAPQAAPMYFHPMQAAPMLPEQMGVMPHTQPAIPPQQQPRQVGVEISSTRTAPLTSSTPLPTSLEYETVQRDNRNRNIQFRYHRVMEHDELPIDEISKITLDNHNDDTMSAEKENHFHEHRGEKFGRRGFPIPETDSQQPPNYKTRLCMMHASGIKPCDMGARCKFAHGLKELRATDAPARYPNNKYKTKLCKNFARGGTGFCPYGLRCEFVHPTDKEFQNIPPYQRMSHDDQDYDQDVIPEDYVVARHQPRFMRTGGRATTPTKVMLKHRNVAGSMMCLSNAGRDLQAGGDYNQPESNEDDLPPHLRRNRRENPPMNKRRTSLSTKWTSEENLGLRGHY

[22] = molecular target: Keap1/Nrf2 (Homo sapiens, UniProt Q14145); assay: Keap1-Nrf2 protein-protein interaction inhibitors, dose response, biochemical, fluorescence polarization, cherry-picked samples (AID 588683)
Keap1/Nrf2, sequence (Q16236 whole entry): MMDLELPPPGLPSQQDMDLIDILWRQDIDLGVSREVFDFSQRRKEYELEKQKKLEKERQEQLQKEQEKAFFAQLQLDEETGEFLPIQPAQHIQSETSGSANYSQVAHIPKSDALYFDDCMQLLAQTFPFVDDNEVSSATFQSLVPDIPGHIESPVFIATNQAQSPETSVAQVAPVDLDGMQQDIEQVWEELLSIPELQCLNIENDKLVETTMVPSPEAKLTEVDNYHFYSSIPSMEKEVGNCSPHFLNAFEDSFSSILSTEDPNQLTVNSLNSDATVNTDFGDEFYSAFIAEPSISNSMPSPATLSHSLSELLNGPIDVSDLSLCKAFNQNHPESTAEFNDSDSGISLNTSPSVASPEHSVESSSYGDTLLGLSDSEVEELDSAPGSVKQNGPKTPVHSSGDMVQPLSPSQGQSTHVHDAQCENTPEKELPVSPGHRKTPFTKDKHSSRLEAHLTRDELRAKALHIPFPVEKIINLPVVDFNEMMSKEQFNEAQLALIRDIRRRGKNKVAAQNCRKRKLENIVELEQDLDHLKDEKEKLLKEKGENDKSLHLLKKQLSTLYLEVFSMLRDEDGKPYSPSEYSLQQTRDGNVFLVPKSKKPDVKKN
Keap1/Nrf2, sequence (Q14145 whole entry): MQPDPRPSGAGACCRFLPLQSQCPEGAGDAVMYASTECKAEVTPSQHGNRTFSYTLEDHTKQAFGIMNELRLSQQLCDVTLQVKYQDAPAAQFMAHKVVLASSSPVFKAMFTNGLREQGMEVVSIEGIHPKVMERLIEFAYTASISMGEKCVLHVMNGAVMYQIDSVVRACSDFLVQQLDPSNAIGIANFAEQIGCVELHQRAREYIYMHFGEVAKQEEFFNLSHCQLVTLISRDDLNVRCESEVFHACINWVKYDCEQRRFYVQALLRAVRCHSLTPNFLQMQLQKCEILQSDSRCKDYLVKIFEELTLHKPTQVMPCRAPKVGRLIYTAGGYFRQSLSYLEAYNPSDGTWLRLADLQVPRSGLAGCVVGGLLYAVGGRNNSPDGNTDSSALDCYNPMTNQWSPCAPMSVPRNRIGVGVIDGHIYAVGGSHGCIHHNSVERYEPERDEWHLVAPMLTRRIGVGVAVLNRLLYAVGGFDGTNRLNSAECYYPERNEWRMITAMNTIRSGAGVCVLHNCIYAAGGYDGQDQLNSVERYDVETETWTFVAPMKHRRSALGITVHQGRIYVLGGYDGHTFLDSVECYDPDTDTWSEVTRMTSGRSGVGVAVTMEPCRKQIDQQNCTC

T2 sequence (P41145 whole entry): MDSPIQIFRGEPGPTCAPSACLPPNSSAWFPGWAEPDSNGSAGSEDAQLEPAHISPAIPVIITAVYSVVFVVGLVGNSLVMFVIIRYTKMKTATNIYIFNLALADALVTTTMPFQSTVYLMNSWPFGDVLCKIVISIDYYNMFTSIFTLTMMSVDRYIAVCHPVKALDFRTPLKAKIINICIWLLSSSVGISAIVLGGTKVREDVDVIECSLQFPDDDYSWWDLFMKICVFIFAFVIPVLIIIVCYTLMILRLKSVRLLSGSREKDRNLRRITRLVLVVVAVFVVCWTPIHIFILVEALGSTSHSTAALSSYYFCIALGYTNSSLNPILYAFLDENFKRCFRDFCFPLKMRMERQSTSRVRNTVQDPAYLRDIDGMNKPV
T1 sequence (P35372 whole entry): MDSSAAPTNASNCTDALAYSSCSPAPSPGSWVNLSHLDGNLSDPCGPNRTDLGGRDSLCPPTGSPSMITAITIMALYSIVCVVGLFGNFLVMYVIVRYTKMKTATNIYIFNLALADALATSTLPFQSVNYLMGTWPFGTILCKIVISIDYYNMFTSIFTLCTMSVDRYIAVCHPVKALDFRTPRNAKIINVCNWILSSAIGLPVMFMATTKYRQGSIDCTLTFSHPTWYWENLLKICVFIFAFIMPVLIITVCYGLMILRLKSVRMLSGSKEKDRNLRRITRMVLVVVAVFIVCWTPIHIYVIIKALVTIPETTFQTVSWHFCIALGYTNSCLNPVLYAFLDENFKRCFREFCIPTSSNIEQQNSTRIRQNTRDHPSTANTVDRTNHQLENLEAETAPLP
T3 sequence (P41143 whole entry): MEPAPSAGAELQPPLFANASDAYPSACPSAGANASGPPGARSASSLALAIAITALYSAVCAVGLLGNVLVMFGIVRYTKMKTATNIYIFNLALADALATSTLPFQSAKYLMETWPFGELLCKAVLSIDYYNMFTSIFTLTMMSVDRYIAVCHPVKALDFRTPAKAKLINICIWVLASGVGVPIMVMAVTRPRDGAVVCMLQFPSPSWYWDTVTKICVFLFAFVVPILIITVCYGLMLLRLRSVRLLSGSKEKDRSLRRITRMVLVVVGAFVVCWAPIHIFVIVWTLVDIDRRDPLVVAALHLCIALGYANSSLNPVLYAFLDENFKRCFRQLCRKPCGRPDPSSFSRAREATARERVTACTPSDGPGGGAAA
Beta-galactosidase, sequence (Q8VNN2 whole entry): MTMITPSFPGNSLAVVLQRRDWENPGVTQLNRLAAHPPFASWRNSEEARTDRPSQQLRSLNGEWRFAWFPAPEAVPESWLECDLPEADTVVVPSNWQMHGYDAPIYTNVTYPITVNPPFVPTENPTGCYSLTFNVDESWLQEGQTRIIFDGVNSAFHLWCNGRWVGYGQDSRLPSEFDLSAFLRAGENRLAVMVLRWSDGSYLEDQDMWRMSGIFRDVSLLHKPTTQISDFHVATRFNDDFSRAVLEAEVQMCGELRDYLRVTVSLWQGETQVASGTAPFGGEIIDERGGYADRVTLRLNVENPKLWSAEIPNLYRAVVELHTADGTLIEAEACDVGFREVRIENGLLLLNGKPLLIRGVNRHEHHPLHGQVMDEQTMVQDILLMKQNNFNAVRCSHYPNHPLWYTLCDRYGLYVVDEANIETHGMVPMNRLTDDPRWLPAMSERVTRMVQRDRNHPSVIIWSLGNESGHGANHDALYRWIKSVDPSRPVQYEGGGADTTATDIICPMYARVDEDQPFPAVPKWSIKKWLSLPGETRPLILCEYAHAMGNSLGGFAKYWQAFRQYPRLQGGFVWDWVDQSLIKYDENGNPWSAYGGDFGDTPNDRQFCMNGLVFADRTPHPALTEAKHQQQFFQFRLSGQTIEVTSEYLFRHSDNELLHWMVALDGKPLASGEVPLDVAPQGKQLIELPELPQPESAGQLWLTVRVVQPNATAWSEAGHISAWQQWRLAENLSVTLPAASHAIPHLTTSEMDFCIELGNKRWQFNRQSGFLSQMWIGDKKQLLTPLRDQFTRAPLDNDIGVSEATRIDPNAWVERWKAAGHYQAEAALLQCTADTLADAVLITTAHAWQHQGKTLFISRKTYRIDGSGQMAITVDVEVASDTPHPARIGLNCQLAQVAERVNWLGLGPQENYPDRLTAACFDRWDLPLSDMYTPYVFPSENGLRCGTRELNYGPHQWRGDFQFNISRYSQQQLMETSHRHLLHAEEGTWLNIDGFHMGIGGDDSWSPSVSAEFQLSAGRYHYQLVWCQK
Type-1 angiotensin II receptor, sequence (P30556 whole entry): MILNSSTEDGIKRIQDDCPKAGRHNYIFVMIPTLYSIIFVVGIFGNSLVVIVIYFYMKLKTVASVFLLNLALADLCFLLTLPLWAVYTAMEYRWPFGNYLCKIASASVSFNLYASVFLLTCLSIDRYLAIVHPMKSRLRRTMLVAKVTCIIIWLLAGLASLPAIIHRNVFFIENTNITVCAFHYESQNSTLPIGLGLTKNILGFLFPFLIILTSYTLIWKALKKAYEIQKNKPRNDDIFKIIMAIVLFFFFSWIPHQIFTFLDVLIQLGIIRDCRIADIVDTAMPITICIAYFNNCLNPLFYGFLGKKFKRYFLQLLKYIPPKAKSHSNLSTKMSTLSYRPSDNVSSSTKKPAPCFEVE

Structure (SMILES): O=C(NC(NC(=S)Nc1ccc(F)cc1)C(Cl)(Cl)Cl)OCc1ccccc1 (centres undefined)
- EC50 [1]: > 32 µM (inactive)
- EC50 [2]: > 32 µM (inactive)
- IC50 [3]: > 32 µM (inactive)
- IC50 [4]: > 10 µM (inactive)
- IC50 [5]: > 32 µM (inactive)
- IC50 [6]: 6.02 µM (active)
- EC50 [7]: > 32 µM (inactive)

Structure (SMILES): COc1ccc(S(=O)(=O)NCc2ccc(C(=O)N3CCN(Cc4ccccc4)CC3)cc2)cc1
- EC50 [1]: > 32 µM (inactive)
- EC50 [2]: > 32 µM (inactive)
- IC50 [3]: > 32 µM (inactive)
- IC50 [4]: > 10 µM (inactive)
- IC50 [5]: > 32 µM (inactive)
- IC50 [6]: > 32 µM (inactive)
- EC50 [7]: > 32 µM (inactive)

Structure (SMILES): Cc1cccc(NC(=S)NNc2ncc(C(F)(F)F)cc2Cl)c1
- IC50 [8]: 13.1 µM (active)
- EC50 [9]: > 40 µM (inactive)

Structure (SMILES): CCCCCCCCCCn1ccc(=N)cc1
- CC50 [10]: 1.57 µM (active)
- EC50 [11]: 8.93 µM (active)
- EC50 [12]: 0.055 µM (active)
- AC50 [13]: 0.471 µM (active)
- EC50 [14]: 10.3 µM (active)
- IC50 [15]: > 80 µM (inactive)
- CC50 [16]: 7.25 µM (active)
- CC50 [17]: 11.4 µM (active)
- EC50 [18]: 8.51 µM (active)
- EC50 [19]: 22.5 µM (active)

Structure (SMILES): COc1ccc(Nc2nc(-c3cccnc3)nc3ccccc23)cn1
- EC50 [20]: 12.4 µM (active)
- EC50 [21]: 8.22 µM (active)
- AC50 [22]: > 52 µM (inactive)
